Entries after “also recorded” stand apart in the source; their conditions may differ.
Legend:
[1] = system: Gal4-RE-controlled complex and synthetic minimal reporter constructs; assay: Gal4-DBD fusion repression, transient transfection luciferase reporter; format: cell-based; conditions: for effect of HDAC inhibitor on Gal-GRIM1 repression: trichostatin A 300 nM, sodium butyrate 5 mM; for transcriptional repression: Gal4-DBD context, all reporter systems described; for repression potential as Gal4-DBD fusion (in words): transient transfections
Excerpt: To determine the transcriptional properties of hsGRIM1 proteins in eukaryotic cells, pCMX-hsGRIM1 expression plasmids were cotransfected with luciferase (LUC) reporter plasmids. Expression of the particular hsGRIM1 protein in a pCMX expression plasmid is under the control of the cytomegalovirus promoter. Luciferase expression in the LUC reporter plasmids used is controlled either by the thymidine kinase (TK) promoter, an E1b minimal promoter (TATA box), or by the respectively indicated complex promoters.
Transfection takes place by the calcium phosphate method or by the DOTAP liposomes method (Roche Diagnostics, product information). Unless otherwise indicated, 10^5 cells/well were seeded in 1 ml of culture medium in 12-well dishes. In the CaPO4 method, the plasmid DNA to be transfected is coprecipitated with calcium phosphate, and the precipitate is distributed to the cells capable of division. The calcium phosphate precipitate is prepared by preparing the mixture indicated below for duplicates in 12-well dishes:
While agitating (vortexing), 80 μl of 2xBES buffer are slowly and uniformly added dropwise to this mixture. The precipitate is incubated at RT for 10 min and distributed uniformly to the cells (80 μl per well) and, after 8 hours, removed by washing with PBS. The cells are incubated in fresh culture medium for a further 18 to 24 h. • BES buffer (2×): 50 mM N,N-bis[2hydroxyethyl]-2-aminoethanesulfonic acid; 280 mM NaCl; 1.5 mM Na2HPO4.2H2O; pH 6.95
Transiently transfected cells are washed once with PBS and lyzed by adding 50 μl of reporter lysis buffer (Promega) and further disrupted by freezing at −80° C. Cell lysates are transferred into Eppendorf reaction vessels, and cell detritus is pelleted at 14 000 rpm for 2′. 10 μl portions of the lysates are pipetted into 96-well microtiter plates to determine the luciferase activity. The luciferase assay took place in an EG&G Berthold Microluminomat. 40 μl of luciferase assay buffer are injected into the 10 μl of cell lysate, and the resulting chemiluminescence is determined in a time integral of 10″. The measured values for the luciferase activity are related to the amount of protein present in the cell lysate. For this purpose, 3 μl portions of the lysates are mixed in 96-well microtiter plates with 100 μl of Bradford assay reagent (BioRad) diluted 1:5 with H2O, and the absorption of the solution is determined at 595 nm. Relative luciferase activities are found from the ratio of the luciferase activity to the protein absorption. • Luciferase assay buffer: 200 mM tricine; 1.07 mM (MgCO3).4Mg(OH)2; 0.1 M MgSO4, 10 mM EDTA (pH 8.0); 33 mM DTT; […]; […] acetyl-coenzyme A; […] glowworm luciferin.
All the described data were obtained with the hsGRIM1 clone. […] Gal-GRIM1 represses expression of reporter genes both of Gal4-RE-controlled complex and synthetic minimal reporter constructs. The repression potential of GRIM1 is distinctly greater for example compared with the corepressor Gal-SuN-CoR. In these experiments, the appropriate corepressors are transiently expressed as heterologous Gal4-DBD fusion proteins in cells. The repression capacity on various synthetic promoter-reporter constructs compared with equal quantities of transfected wild-type Gal4-DBD is determined by luciferase reporter gene expression (FIG. 8).
Gal-GRIM1 is equally strong as a repressor as a large number of described corepressors such as, for example, Gal-HDAC1-10, Gal-CBF1, Gal-Alien and represses only insignificantly weaker than Gal-N-CoR-RD or Gal-SMRT-RD. The repression potential of Gal-GRIM1 was investigated in conjunction with the complex Gal43x-tk-LUC and Gal-MMTV-LUC promoter/reporter constructs and in conjunction with the minimal promoter/reporter constructs Gal5x-E1b-TATA-box and Gal3x-βglobin-TATA-LUC. […]

[2] = system: differentiating C2C12 skeletal muscle cells; assay: GRIM1 relocalization in differentiating C2C12 cells under signal pathway inhibitors; format: cell-based, mouse; conditions: day 0 to day 6 in differentiation medium; Gö6850 1 μM, LY294002 10 μM, Ro31-8220 0.5 μM, PD98059 10 μM, fasudil 10 μM
Experimental: The cells were cultured in the media recommended by the ATCC on 15 cm cell culture dishes under sterile conditions. Cells are subcultured in a ratio of 1:5 to 1:20 every two to three days and kept at a maximum of 60% confluence. Old medium is removed, and the cells are washed with PBS buffer and treated with trypsin/EDTA solution (0.25% trypsin, 0.04% EDTA in PBS buffer) until they are detached from the culture dish. The cells are isolated in fresh medium and subcultured on new subculture dishes. • PBS buffer: 137 mM NaCl; 2.7 mM KCl; 8 mM Na2HPO4; 1.8 mM KH2PO4 • Media used: DMEM (Gibco BRL), 100 IU penicillin G/ml, 100 μg/ml streptomycin, 2 mM glutamine, 10% fetal calf serum. As differentiation medium for C2C12 and L6 cells, 10% FCS was replaced by 2% horse serum.
Cells are seeded in the desired cell density on autoclaved slides and fixed on the support with 5% paraformaldehyde for 10′. Cell membranes are made permeable for antibodies by incubation in 0.2% TritonX100 for 10′. Before the incubation with the primary antibodies, the cells are blocked in 0.2% gelatin (in PBS) at RT for 1 h. Anti-hsGRIM1 antibodies are diluted 1:500 in 0.2% strength gelatin solution and incubated at RT for 1 h. After washing three times with PBS for 5′ each time, the respective fluorochrome-coupled secondary antibody is added 1:2000 in 0.2% gelatin solution and incubated in the dark at RT for 30′. After the washing steps, the nucleus is counterstained with DAPI (1 μg/ml PBS, Roche Diagnostics) and the cells are finally washed twice in 0.1% TritonX100 in order to minimize autofluorescences. The slides are preserved in Fluoromount M (Southern Biotechnology Associates) and analyzed using a fluorescence microscope.
Treatment of differentiating C2C12 skeletal muscle cells with various inhibitors of central signal transduction pathways have no effect on relocalization or the number of nuclear speckles of GRIM1 within the investigated differentiation from day 0 to day 6 after addition of the differentiation medium. Tested inhibitors: pan-HDAC inhibitors TSA and sodium butyrate, protein kinase inhibitors Gö6850 (specific PKC inhibitor, 1 μM), LY294002 (specific P13kinase inhibitor, 10 μM), Ro31-8220 (PKC broad-spectrum inhibitor, 0.5 μM), PD98059 (MEK1 inhibitor, 10 μM), fasudil (Rock kinase inhibitor, 10 μM), SB203580 (p38α/β inhibitor). Overacetylation and blockade of central signal cascades had drastic morphologically visible consequences for some of the cells, but there was no effect on relocalization or the number of detectable GRIM1 speckles.

androgen receptor (hsAR) = assay: GRIM1-AR protein-protein interaction (pulldown, co-IP, yTHS); format: binding, human
Experimental: Further functional characterization of the interaction domains within GRIM1 was carried out by pulldown analyses with the expressible fragments of GRIM1.

[3] = system: nuclear export of GFP-GRIM1 (exportin1/Crm1); assay: Nuclear export of GFP-GRIM1 under leptomycin B; format: cell-based; conditions: 20 nM for 6 h before cell harvesting
[4] = system: acetylation of core histones by p300; assay: INHAT assay (in vitro acetylation of histones by p300); format: biochemical; conditions: core histones H3, H2A, H2B and H4
Experimental: INHAT assays were carried out as described by Eckner et al. and by Seo et al. (Eckner et al., 1996, Genes and Development 10 (19), pp 2478-2490, Seo et al., 2001, Cell 104 (1), pp 119-130). Histones or histone mixtures are preincubated with the appropriate peptides in a total of 50 μl of HAT buffer, then mixed with bacterially expressed p300 HAT domains and 0.5 μCi of ^14C-acetyl-coenzyme A, and incubated at 30° C. and 1000 rpm for 2 h. Reactions are stopped by adding SDS Laemmli buffer. Proteins are fractionated in denaturing SDS-PAGE, and the gels are incubated in Amplify (NEN) for 1 h. Acetylations are detected in autoradiographies.
It was possible to show in GST pulldown analyses that the N- and C-terminal fragments of hsGRIM1 can associate directly with histones in vitro.

[5] = system: core histones H4, H2B, H2A and H3; assay: GST pulldown with core histones; format: binding
Experimental: A protein is expressed as GST fusion protein in E. coli, immobilized on a GST-binding carrier material, and incubated with the potential interactant which is usually radiolabeled. In the subsequent washing steps, proteins which interact only weakly or not at all are washed off the carrier material or the carrier material-bound GST fusion protein. The amount of associated interactant can be determined by fractionation of the proteins by SDS-PAGE and subsequent autoradiography. To check the specificity of interaction between potential interactant and GST fusion protein, the interaction with GST alone is examined.
Aliquots of GST-GRIM1 fragments or GST-containing E. coli crude lysate are mixed in each case with 30 μl of glutathione(GSH)-Sepharose and incubated on a bohemian wheel at 4° C. for 1 h. The GSH-Sepharose is pelleted by centrifugation (1′ at 2000 rpm) and washed twice in pulldown buffer. The pellet is then resuspended in 500 μl of pulldown buffer and incubated with the in vitro translated, […] potential interactant at 4° C. on the bohemian wheel for 1 h. […]

CN(C)CCCn1cc(C2=C(c3c[nH]c4ccccc34)C(=O)NC2=O)c2ccccc21 [Gö6850]
brought about a change in the transcriptional activity of Gal-GRIM1 ([1]; PKC inhibition or activation, various cell lines): Neither
effect on relocalization or number of nuclear speckles of GRIM1 [2]: no effect

O=c1cc(N2CCOCC2)oc2c(-c3ccccc3)cccc12 [LY294002]
effect on relocalization or number of nuclear speckles of GRIM1 [2]: no effect

COc1cccc(-c2cc(=O)c3ccccc3o2)c1N [PD98059]
effect on relocalization or number of nuclear speckles of GRIM1 [2]: no effect

Cn1cc(C2=C(c3cn(CCCSC(=N)N)c4ccccc34)C(=O)NC2=O)c2ccccc21 [Ro31-8220]
effect on relocalization or number of nuclear speckles of GRIM1 [2]: no effect

C[S+]([O-])c1ccc(-c2nc(-c3ccncc3)c(-c3ccc(F)cc3)[nH]2)cc1 (centres unmarked) [SB203580]
effect on relocalization or number of nuclear speckles of GRIM1 [2]: no effect

O=S(=O)(c1cccc2cnccc12)N1CCCNCC1 [fasudil]
effect on relocalization or number of nuclear speckles of GRIM1 [2]: no effect

CC(C)(O)C(=O)Nc1ccc([N+](=O)[O-])c(C(F)(F)F)c1 [hydroxyflutamide]
influence of AR antagonist on GRIM1-AR interaction (androgen receptor (hsAR)): cannot be influenced

CCC(=C/[C@H](C)C/C=C/C(C)=C/[C@@H](C)C(=O)[C@@H](C)[C@H](O)[C@@H](C)C/C(C)=C/C(=O)O)/C=C/[C@@H]1OC(=O)C=C[C@@H]1C [leptomycin B]
effect on nuclear export of GFP-GRIM1 or GFP-GRIM1 aa234-336 [3]: not influenced

CCCC(=O)[O-].[Na+] [sodium butyrate]
effect of HDAC inhibitor on Gal-GRIM1 repression [1]: not impaired
effect on relocalization or number of nuclear speckles of GRIM1 [2]: no effect

CC(/C=C/C(=O)NO)=C\[C@@H](C)C(=O)c1ccc(N(C)C)cc1 [trichostatin A]
effect on general transcription ([1]; cotransfection of full-length p300 and Gal-GRIM1): enhances general transcription
effect of HDAC inhibitor on Gal-GRIM1 repression [1]: not impaired; also recorded: relative repression by Gal-GRIM1 remains unchanged; also recorded: not influenced
effect on relocalization or number of nuclear speckles of GRIM1 [2]: no effect

GRIM1 aa 3-147: recombinantly expressed N-terminal hsGRIM1 fragment, tag not stated
inhibition of histone acetylation by p300 (INHAT activity) [4]: efficiently blocks acetylation

GST-E: GST-fused hsGRIM1 aa 3-147
interaction with core histones [5]: marked interaction

GST-I: GST-fused hsGRIM1 aa 609-749
interacted with the AR in pulldown (androgen receptor (hsAR); GST fragments, in the sequence M≧H>>I): interacted with the AR
interaction with core histones [5]: marked interaction

Gal-E: hsGRIM1 aa 3-147 as Gal4-DBD fusion
transcriptional repression [1]: 2 ×
repression potential as Gal4-DBD fusion (in words) [1]: smallest repressive effect

Gal-I: hsGRIM1 aa 609-749 as Gal4-DBD fusion (Table 8; Table 2 differs)
transcriptional repression [1]: 2 ×
repression potential as Gal4-DBD fusion (in words) [1]: smallest repressive effect

mmGRIM1: mouse GRIM1, 750 amino acids, Seq. ID No. 4
interaction with hsAR (androgen receptor (hsAR); tfIP, utfIP, yTHS, PD and tT): strong direct interaction

— patent US7981623B2, “Repressor of skeletal muscle differentiation, nucleic acids coding therefor and the use thereof in diagnosis and therapy” (Universitaetsklinikum Freiburg, priority 2002, dated 2011)
